{
  "source": "patent US7732425B2",
  "about": "“Pharmaceutical composition for ophthalmic use” (Kabushiki Kaisha Hayashibara Seibutsu Kagaku Kenkyujo, priority 2000, dated 2010)",
  "test_system": "ophthalmologic clinical symptoms and signs of Sjögren syndrome",
  "test": "Therapeutic experiment with α,α-trehalose eye drops in patients diagnosed with Sjögren syndrome",
  "assay_type": "in vivo, human",
  "excerpt": "To confirm the therapeutic effect by trehalose on the ophthalmologic clinical symptoms and signs of Sjögren syndrome, patients consisting of 10 men and 10 women, 22-65 years old (a mean average of 45 years old), who were diagnosed as Sjögren syndrome and had been suffering from clinical symptoms such as foreign body sensation, burning, and itching in their both eyes, were subjected to a therapeutic experiment. In this experiment, a reagent grade of α,α-trehalose with a purity of 99% or higher, commercialized by Hayashibara Biochemical Laboratories, Inc., Okayama, Japan, was dissolved in physiological saline to give a final concentration of 3.5% (w/v) or 7.5% (w/v), and filtered with a 0.22 μm membrane filter to remove bacteria. Then, the filtrate was removed pyrogen in a usual manner for a test preparation. As a control, a similar preparation was provided except for not dissolving α,α-trehalose therein. The 3.5% (w/v) α,α-trehalose solution was administered to one eye for each one of 5-male and 5-female patients, while the physiological saline as a control was administered to the other eye for each one of the patients. The administrations were conducted at four times (getting up, daytime, evening, and before sleeping) a day and at a dose of two to three drops (a volume of about 0.05 to about 0.075 ml) per shot for four weeks. Before and after this experiment, the patients were asked to grade the symptoms of foreign body sensation, burning, and itching in their eyes. Using the 7.5% (w/v) α,α-trehalose solution, a similar experiment was conducted with the remaining male and female patients, five each.",
  "key": {"[1]": {"settings": "patients with Sjögren syndrome, 3.5% or 7.5% (w/v) solution, four times a day for four weeks"}},
  "data": [
    {"molecule": "OC[C@H]1O[C@H](O[C@H]2O[C@H](CO)[C@@H](O)[C@H](O)[C@H]2O)[C@H](O)[C@@H](O)[C@@H]1O", "note": "[α,α-trehalose]", "values": [
      {"measurement": "duration of therapeutic effect after end of administration", "setting": "after completion of the four-week experiment", "result": "lasted for some days even after the completion of this experiment"},
      {"measurement": "exacerbation of the ophthalmologic clinical symptoms and signs in the treated eyes", "setting": "all twenty patients, during and after completion of the four-week experiment", "result": "no exacerbation"},
      {"measurement": "improvement or remission of the subjective ophthalmic symptoms of foreign body sensation, burning, and itching", "setting": "patients with Sjögren syndrome, 3.5% (w/v) or 7.5% (w/v) solution in physiological saline, one eye, 2-3 drops four times a day for four weeks, other eye saline control", "result": "nine out of ten patients"},
      {"measurement": "corneal and conjunctival erosions stained by fluorescein and rose bengal (objective sign)", "setting": "[1]", "result": "reduced in all the ten patients"},
      {"measurement": "tear film break-up time (objective sign)", "setting": "[1]", "result": "improved in nine out of ten patients"}
    ]}
  ]
}
